According to US20110206638A1, “COMPOSITIONS AND METHODS FOR REDUCING THE MUTATION RATE OF VIRUSES” (priority 2010, published 2011):

What was measured:
[1] = test system: subgenomic HCV replicon of genotype 1b (Con1S1179I), NS5A region; assay: NS5A sequencing of HCV RNA, nucleotide and amino acid substitution rates in Con1 replicon cells (Example 2); assay type: cell-based, Hepatitis C virus; details: for dn/ds / Ts/Tv / Percentage of sites showing positive selection / location of mutations in NS5A / Fold increase (Amino acid change per site) / Fold increase (Nt. change per site): 48 hrs; for dn/ds: SNAP, control 0.31; for Ts/Tv: control 3.3; for Percentage of sites showing positive selection: control 4.25%; for Amino acid change per site / Nt. change per site: Con1 replicon cells, once daily for 48 hrs, T7 baseline subtracted; for Nt. change per site: ethanol 0.5% v/v, BSO 20 μM, H2O2 100 μM, acetaldehyde 10 μM; for location of mutations in NS5A: SNAP plot against codons; for percentage of nucleotide substitutions A→C / percentage of nucleotide substitutions A→G / percentage of nucleotide substitutions A→U / percentage of nucleotide substitutions C→A / percentage of nucleotide substitutions C→G / percentage of nucleotide substitutions C→U / percentage of nucleotide substitutions G→A / percentage of nucleotide substitutions G→C / percentage of nucleotide substitutions G→U / percentage of nucleotide substitutions U→A / percentage of nucleotide substitutions U→C / percentage of nucleotide substitutions U→G: of all nt. substitutions in the group; for Fold increase (Amino acid change per site) / Fold increase (Nt. change per site): over control
Experimental: Huh7 cell clones (SgPC2 cells) supporting continuous replication of a subgenomic HCV replicon of genotype 1b (Con1S1179I sequence) were used (Choi J. et al. (2004) Hepatology 39:81-89; Blight K J et al. (2000) Science 290:1972). Subgenomic replicons support the HCV RNA genome replication by the viral replicase but no virus is formed. The in vitro transcription, transfection of the viral RNA, and Huh7 human hepatoma cell culture were performed as described (Choi J. et al. (2004) Hepatology 39:81-89; Blight K J et al. (2000) Science 290:1972). All biochemicals including ethanol (molecular biology grade), acetaldehyde, BSO, H2O2, dipyridal, and GSH ethyl ester were obtained from SigmaAldrich except PIH, which was synthesized according to published methods (Kicic A et al., (2001) Cancer 92: 3093-3110; Ponka P. et al., (1979) FEBS Lett 97: 317-321).
Total RNAs were collected using Trizol (Invitrogen). Then, the NS5A region (nt. 4612 to 6013 of Con1 replicon) was reverse transcribed/amplified with AccuScript High Fidelity RT-PCR System (Agilent). The reverse primer used for reverse transcription and PCR amplification was 5′-[…]-3′ (SEQ ID NO: 1), and the forward primer was 5′-[…]-3′ (SEQ ID NO: 2). The XbaI and HindIII restriction enzyme sites are underlined. The cDNA products were cloned into pUC19 via HindIII and XbaI sites and sequenced at the Joint Genome Institute (Livermore, Calif.) and University of California Berkeley Sequencing (Berkeley, Calif.). Sequences were aligned against Con1(S1179I) sequence, using BioEdit/MEGA 4.0 Molecular Evolutionary Genetics Analysis software. Cumulative synonymous and nonsynonymous mutations were computed using Synonymous Nonsynonomous Analysis Program (SNAP; www.hcv.lanl.gov). The […] ratio was calculated using SNAP. Amino acid substitution trends were analyzed by position with MutationCounter, a mutation counting program, developed for this project. The sequences were compared with 1,212 genotype 1b NS5A sequences pooled from the Lawrence Livermore HCV sequence database (www.hcv.lanl.gov) which included sequences from the European, Asian, and Russian databases. Sequences harboring gaps, undetermined nucleotides, or incomplete NS5A sequences were removed prior to the analysis.
To test whether ethanol can affect the HCV RNA sequence, Con1 replicon cells that support genotype 1b subgenomic HCV RNA replication were incubated with ethanol (0.5% v/v), BSO (20 μM), H2O2 (100 μM), or acetaldehyde (10 μM) once daily for 48 hrs with a change of the cell culture medium at the time of each treatment. Acetaldehyde and H2O2 are generated during hepatic metabolism of ethanol. BSO, by inhibiting GSH biosynthesis, mimics GSH depletion seen in hepatitis C patients. GSH participates in detoxification reactions that remove reactive species such as H2O2 and acetaldehyde. Thus, by decreasing GSH, BSO also amplifies the effects of endogenous ROS and RNS, allowing one to test the effects of endogenous ROS/RNS. Then, the RNA was collected, and the NS5A region corresponding to nt. 4612 to 6013 of Con1 replicon was reverse transcribed using AccuScript reverse transcriptase and amplified with PfuUltra (Agilent). PfuUltra is a high fidelity DNA polymerase with an error rate of 4.3×10^−9; AccuScript reverse transcriptase has an error rate of 1.61×10^−7. Then, the cDNA products were cloned into pUC19 and sequenced by the Sanger method.

Huh7 cells = assay type: cell-based, human
Experimental: Total RNA was isolated using Trizol (Invitrogen) and analyzed for 8-OH-guanosine (8-OH-G) by northwestern, as described (Shan X et al. (2003) J. Neurosci. 23:4913-4921). Briefly, RNA was size-fractionated by agarose gel electrophoresis, transferred to a nylon membrane, blocked with 1% BSA, incubated sequentially with monoclonal anti-8-OH-G/dG antibodies (QED Bioscience, Inc.) and then with goat anti-mouse HRP-conjugated secondary antibody (Santa Cruz Biotechnology), and signals were detected, using an ECL kit (Amersham). In addition, RNA was digested with nuclease P1 (Sigma, US Biological) and alkaline phosphatase (Promega) and analyzed for 8-OH-G content using RNA Damage Kit (Cell Biolabs, Inc.), following manufacturer's protocols.
GO continuously generates H2O2 extracellularly, in the presence of glucose and can be used to mimic inflammation and continued oxidative stress seen during chronic hepatitis C. […] An in vitro-oxidized control Huh7 RNA (incubated with H2O2+cytochrome C) was used as a positive control (FIG. 3A). […] NiCl2 was used as a positive control genotoxin in FIGS. 3B and 3C.

SMILES | dn/ds [1] | Ts/Tv [1] | Percentage of sites showing positive selection [1] [%] | Amino acid change per site [1] | Nt. change per site [1] | location of mutations in NS5A [1] | percentage of nucleotide substitutions A→C [1] [percentage] | percentage of nucleotide substitutions A→G [1] [percentage] | percentage of nucleotide substitutions A→U [1] [percentage] | percentage of nucleotide substitutions C→A [1] [percentage] | percentage of nucleotide substitutions C→G [1] [percentage] | percentage of nucleotide substitutions C→U [1] [percentage] | percentage of nucleotide substitutions G→A [1] [percentage] | percentage of nucleotide substitutions G→C [1] [percentage] | percentage of nucleotide substitutions G→U [1] [percentage] | percentage of nucleotide substitutions U→A [1] [percentage] | percentage of nucleotide substitutions U→C [1] [percentage] | percentage of nucleotide substitutions U→G [1] [percentage] | Fold increase (Amino acid change per site) [1] [fold] | also measured
CCCCS(=N)(=O)CCC(N)C(=O)O [BSO, L-buthionine-S,R-sulfoximine] | 0.72 | 3.3 | 12.3 | 3.24×10^−3 amino acid change per site | 1.20×10^−3 nt. change per site | clustered in the C-terminal half of NS5A | 1.28 | 24.36 | 2.56 | 3.85 | 5.13 | 8.97 | 16.67 | 3.85 | 3.85 | 0 | 29.49 | 0 | 11.6 | –
CCO [Ethanol, ethanol] | 1.05 | 6.8 | 12.3 | 4.97 × 10^−3 amino acid change per site | 1.71 × 10^−3 nt. change per site | clustered in the C-terminal half of NS5A | 1.30 | 25.97 | 2.60 | 0 | 0 | 18.18 | 12.99 | 6.49 | 2.60 | 0 | 29.87 | 0 | 17.8 | Nt. change per site ([1]; listed as ethanol): 1.71×10^−3 nt. change per site; Amino acid change per site ([1]; listed as ethanol): 4.97×10^−3 amino acid change per site; Fold increase (Nt. change per site) [1]: 5.9 fold; Fold increase (Amino acid change per site) ([1]; listed as ethanol): ~18 fold; Fold increase (Nt. change per site) ([1]; listed as ethanol): about 6 fold; 8-OHG in Huh7 cells (Huh7 cells): elevated
